Results as given in patent EP2258370A1, “Treatment of malignant diseases” (Medizinische Universität Wien, priority 2009, dated 2010).

Assays:
PC-3 = settings: Rac-hyperactive prostate cancer cells; cited from earlier work
SW620 cells = experiment: SW620 human colon cancer xenograft in athymic nude mice; settings: 100µg/day for 2 weeks, intraperitoneal osmotic minipump from day 8, day 22; for mean tumour weight: control 793; for Mean tumour weight (±SD): control 793 ± 328 mg
Description: 8 x 10^6 SW620 cells/100µl PBS were injected subcutaneously into the left flank. […] Control mice received osmotic pumps filled with Ringer's solution. All mice were sacrificed on day 22 and tumour weights were then determined.

[1] = test system: CRL 2505 (prostate carcinoma); experiment: Cell proliferation assay (WST-1); format: cell-based; settings: 25 and 50 µM, 24 h, 48 h and 72 h, WST-1, Figs. 2a-f
Description: (§1) Rac-1 inhibitor compounds were tested in cell proliferation assays performed with following cancer cell lines: MCF7 (mammary carcinoma), SW620 (colon carcinoma), CRL 2505 (prostate carcinoma). The level of proliferation was measured at 24 hours (h), 48 h and 72 h after in vitro induction of compounds. Two different concentrations of compounds were tested for each cell line (25 and 50 µM, see Figs. 2a-f; the asteriks indicates significant change versus control group (no compound induction) at all incubation points (p<0.02)).
(§2) The proliferation assay was performed with Cell Proliferation Reagent WST-1 (Roche Cat. No. 1644 807). The cells were cultured 2 x 10^4 cells/well in microplates (96 wells, flat bottom). The Cell Proliferation Reagent WST-1 (10 µl/well) was added to each experimental group (Figs. 2a-f). After 4 hours of incubation (37°C) the absorbance was measured by Microplate (ELISA) reader at 450 nm optical density (OD). The reference wavelength was 620 nm.
(§3) All experimental compounds (compounds 1, 2, 3-10, 18, 53) were solved in 1% DMSO solution. Therefore, additional experimental group (1% DMSO) was used to examine proliferation activity of used cell lines in presence of 1% DMSO.
(§4) All measurements were corrected to the blank absorbance (medium with 10 µl Cell Proliferation Reagent WST-1, no cells).

MCF7 (mammary carcinoma) = experiment: Cell proliferation assay (WST-1); format: cell-based; settings: 25 and 50 µM, 24 h, 48 h and 72 h, WST-1, Figs. 2a-f
Description: as §1, §2, §3, §4

SW620 (colon carcinoma) = experiment: Cell proliferation assay (WST-1); format: cell-based; settings: 25 and 50 µM, 24 h, 48 h and 72 h, WST-1, Figs. 2a-f
Description: as §1, §2, §3, §4

MCF-7 cells = experiment: MCF-7 human breast cancer xenograft in athymic nude mice; format: in vivo; settings: intraperitoneal osmotic minipump from day 24, day 38, control 210 ± 31 mg
Description: On the indicated days, tumour sizes were determined with a caliper and tumour volumes calculated according to the following formula: tumour volume = [(length x width^2) x […]].
All mice were sacrificed on day 38 and tumour weights were then determined.

Row | SMILES | proliferation, anchorage independent growth, and invasion (PC-3) | Mean tumour weight (% of control (co)) (SW620 cells) | mean tumour weight (SW620 cells) | Mean tumour weight (±SD) (SW620 cells) | inhibiting proliferation of the tumour cells [1] | inhibiting proliferation of the tumour cells (MCF7 (mammary carcinoma)) | inhibiting proliferation of the tumour cells (SW620 (colon carcinoma)) | mean tumour weight (MCF-7 cells; 25µg per day) | mean tumour weight (MCF-7 cells; 50µg per day) | mean tumour weight (MCF-7 cells; 100µg per day)
1 | CCN(CC)CCCC(C)Nc1nc(C)cc(Nc2ccc3nc(C)cc(N)c3c2)n1 (racemic) [NSC23766, N6-(2-((4-(diethylamino)-1-methylbutyl)amino)-6-methyl-4-pyrimidinyl)-2-methyl-4,6-quinolinediamine, reference compound] | able to inhibit proliferation, anchorage independent growth, and invasion | 107 % of control (co) | 846 mg | 846 ± 256 mg |  |  |  |  |  | 
2 | CCN(CC)CCCC(C)Nc1nc(C)cc(NCCc2c[nH]c3ccc(O)cc23)n1 (racemic) [Compound 2, 3-{2-[2-(4-Diethylamino-1-methyl-butylamino)-6-methyl-pyrimidin-4-ylamino]-ethyl}-1H-indol-5-ol] |  | 77 % of control (co) | 612 mg | 612 mg | effective in inhibiting proliferation | effective in inhibiting proliferation | effective in inhibiting proliferation | 185 ± 54 mg | 152 ± 70 mg | 118 ± 60 mg
3 | CCN(CC)CCCC(C)Nc1nc(C)cc(NCCc2c[nH]c3ccccc23)n1 (stereo not shown) [Compound 1, N2-(4-Diethylamino-1-methyl-butyl)-N4-[2-(1H-indol-3-yl)-ethyl]-6-methyl-pyrimidine-2,4-diamine] |  | 74 % of control (co) | 583 mg | 583 ± 151 mg | effective in inhibiting proliferation | effective in inhibiting proliferation | effective in inhibiting proliferation |  |  | 
